pKi: −log10 of the molar value. Structures can show the parent of a compound that is named as a salt.
Biological target: T1, histamine-3 (H3) receptor (Homo sapiens, UniProt Q9Y5N1)
T1 construct: expressed in transfected cells; host or cells: HEK293T
Test: Methyl Histamine Binding in Human Histamine-3 Receptor Cell Line
Details: membranes of stably transfected HEK293T cells, radioligand 1 nM, Ki from IC50 by Cheng-Prusoff
Procedure: Evaluation of Methyl Histamine Binding in Human Histamine-3 Receptor Cell Line
The affinity of test compounds for the histamine-3 (H3) receptor is evaluated in the following manner. Stably transfected HEK293T cells are grown in DMEM containing 10% heat inactivated FBS and G-418 (500 ug/ml). Cells are scraped from the plate, transferred to centrifuge tubes, washed one time in PBS by centrifugation in a Sorvall RT7 Plus centrifuge (2000 rpm 10 minutes, 4° C.). The resulting pellets are stored at 80° C. until ready for use. Cells are re-suspended in buffer (50 mM Tris pH=7.5) and placed in a Dounce homogenizer, douncing ten times to homogenize cells. The homogenate is spun down by centrifugation (Sorvall RT7 Plus, 1800 rpm 10 minutes, 4° C.). The supernatant is placed in a Corex tube and spun down by centrifugation (Sorvall RC 5c Plus, 17,000 rpm 20 minutes, 4° C.). The pellet is resuspended in buffer (50 mM Tris, pH 7.5). Protein concentration (ug/ul) is determined using the Micro-BCA Protein Determination. The binding assay is set up in a 96 well microtiter plate in a total volume of 250 uL. Non-specific binding is determined in the presence of 10 uM clobenpropit. The final radioligand concentration is 1 nM. The test compound is serially diluted using the Beckman Biomek2000 to a final approximate range of 100 uM to 100 pM. Membranes are suspended in buffer, homogenized in 2 bursts of ten seconds using a Vitris mechanical homogenizer set at power setting 5. Ten μg of membranes are added to each well. Following a one hour incubation at 30° C., the reaction is terminated by the addition of ice cold buffer and rapid filtration with a Packard Filtermate Harvester through a GF/B filter pre-soaked with 1% PEI for one hour. The plate is dried for one hour at 37° C. and 60 μL Microscint Scintillant is added to each well. The CPM per well is measured on a Packard Top Count NXT. Ki values are determined in nM. The Ki is calculated from the IC50 (i.e. the concentration of competing ligand which displaces 50% of the specific binding of the radioligand). CPM values are expressed as % specific binding and plotted vs compound concentration. A curve is fitted using a four-parameter logistic fit and the IC50 value is determined. The Ki is calculated from this using the Cheng-Prusoff equation: […]=IC50/1+(L/Kd) where L=concentration of free radioligand used in the assay, and Kd is the dissociation constant of the radioligand for the receptor. L is determined for each experiment by counting an aliquot of the diluted radioligand (corresponding to that added to each well) and the Kd has previously been determined under identical conditions for this cell line/radioligand.

T1 sequence (Q9Y5N1 whole entry): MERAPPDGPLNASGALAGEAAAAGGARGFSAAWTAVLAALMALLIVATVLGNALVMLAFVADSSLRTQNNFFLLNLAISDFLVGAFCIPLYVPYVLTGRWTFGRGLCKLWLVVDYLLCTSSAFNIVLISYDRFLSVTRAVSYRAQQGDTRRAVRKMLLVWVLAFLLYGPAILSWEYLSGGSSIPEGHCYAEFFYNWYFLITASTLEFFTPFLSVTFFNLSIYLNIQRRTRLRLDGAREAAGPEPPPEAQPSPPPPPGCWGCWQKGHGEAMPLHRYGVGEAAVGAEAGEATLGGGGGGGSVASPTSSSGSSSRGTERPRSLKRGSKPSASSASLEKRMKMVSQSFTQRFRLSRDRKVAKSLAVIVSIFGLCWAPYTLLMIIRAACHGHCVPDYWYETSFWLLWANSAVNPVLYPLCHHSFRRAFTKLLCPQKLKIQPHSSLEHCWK

Row | pKi | Structure (SMILES)
1 | ≥ 8.00 | c1ccc2c(c1)ncn2Cc1ccc(-c2nc(CN3CCCC3)co2)cc1 [Example 6B, 1-{4-[4-(Pyrrolidin-1-ylmethyl)-1,3-oxazol-2-yl]benzyl}-1H-benzimidazole Hydrochloride]
2 | ≥ 8.00 | c1ccc2c(c1)ncn2Cc1ccc(-c2nc(CN3CCCCC3)co2)cc1 [Example 7, 1-{4-[4-(piperidin-1-ylmethyl)-1,3-oxazol-2-yl]benzyl}-1H-benzimidazole]
3 | 7.60 to 8.00 | CN(C)Cc1coc(-c2ccc(Cn3cnc4ccccc43)cc2)n1 [Example 8]
4 | < 7.00 | c1ccc2c(c1)ncn2Cc1ccc(-c2nc(CN3CCOCC3)co2)cc1 [Example 10, 1-{4-[4-(morpholin-4-ylmethyl)-1,3-oxazol-2-yl]benzyl}-1H-benzimidazole]
5 | < 7.00 | CN1CCN(Cc2coc(-c3ccc(Cn4cnc5ccccc54)cc3)n2)CC1 [Example 11]
6 | ≥ 8.00 | CCN(CC)Cc1coc(-c2ccc(Cn3cnc4ccccc43)cc2)n1 [Example 12, N-({2-[4-(1H-benzimidazol-1-ylmethyl)phenyl]-1,3-oxazol-4-yl}methyl)-N-ethylethanamine]
7 | ≥ 8.00 | CC1CCCN1Cc1coc(-c2ccc(Cn3cnc4ccccc43)cc2)n1 (stereo not drawn) [Example 13, 1-(4-{4-[(2-methylpyrrolidin-1-yl)methyl]-1,3-oxazol-2-yl}benzyl)-1H-benzimidazole]
8 | ≥ 8.00 | c1ccc2c(c1)ncn2Cc1ccc(-c2nc(CN3CCCCCC3)co2)cc1 [Example 14, 1-{4-[4-(azepan-1-ylmethyl)-1,3-oxazol-2-yl]benzyl}-1H-benzimidazole]
9 | 7.00 to 7.30 | CC1CCCCN1Cc1coc(-c2ccc(Cn3cnc4ccccc43)cc2)n1 (stereo not drawn) [Example 15, 1-(4-{4-[(2-methylpiperidin-1-yl)methyl]-1,3-oxazol-2-yl}benzyl)-1H-benzimidazole]
10 | ≥ 8.00 | CC1CCCN(Cc2coc(-c3ccc(Cn4cnc5ccccc54)cc3)n2)C1 (stereo not drawn) [Example 16]
11 | ≥ 8.00 | CC1CCN(Cc2coc(-c3ccc(Cn4cnc5ccccc54)cc3)n2)CC1 [Example 17]
12 | 7.60 to 8.00 | OC[C@@H]1CCCN1Cc1coc(-c2ccc(Cn3cnc4ccccc43)cc2)n1 [Example 18, [(2S)-1-({2-[4-(1H-benzimidazol-1-ylmethyl)phenyl]-1,3-oxazol-4-yl}methyl)pyrrolidin-2-yl]methanol]
13 | ≥ 8.00 | C[C@@H]1CCCN1Cc1coc(-c2ccc(Cn3cnc4ccccc43)cc2)n1 [Example 19, 1-[4-(4-{[(2R)-2-methylpyrrolidin-1-yl]methyl}-1,3-oxazol-2-yl)benzyl]-1H-benzimidazole]
14 | ≥ 8.00 | C[C@H]1CCCN1Cc1coc(-c2ccc(Cn3cnc4ccccc43)cc2)n1 [Example 20, 1-[4-(4-{[(2S)-2-methylpyrrolidin-1-yl]methyl}-1,3-oxazol-2-yl)benzyl]-1H-benzimidazole]
15 | 7.60 to 8.00 | F[C@@H]1CCN(Cc2coc(-c3ccc(Cn4cnc5ccccc54)cc3)n2)C1 [Example 21, 1-[4-(4-{[(3R)-3-fluoropyrrolidin-1-yl]methyl}-1,3-oxazol-2-yl)benzyl]-1H-benzimidazole]
16 | 7.60 to 8.00 | F[C@H]1CCN(Cc2coc(-c3ccc(Cn4cnc5ccccc54)cc3)n2)C1 [Example 22, 1-[4-(4-{[(3S)-3-fluoropyrrolidin-1-yl]methyl}-1,3-oxazol-2-yl)benzyl]-1H-benzimidazole]
17 | ≥ 8.00 | Cc1oc(-c2ccc(Cn3cnc4ccccc43)cc2)nc1CN1CCCC1 [Example 28, 1-{4-[5-methyl-4-(pyrrolidin-1-ylmethyl)-1,3-oxazol-2-yl]benzyl}-1H-benzimidazole]
18 | 7.30 to 7.60 | Brc1oc(-c2ccc(Cn3cnc4ccccc43)cc2)nc1CN1CCCC1 [Example 29, 1-{4-[5-bromo-4-(pyrrolidin-1-ylmethyl)-1,3-oxazol-2-yl]benzyl}-1H-benzimidazole]
19 | ≥ 8.00 | c1ccc2c(c1)ncn2-c1ccc(-c2nc(CN3CCCC3)co2)cc1 [Example 36, 1-{4-[4-(pyrrolidin-1-ylmethyl)-1,3-oxazol-2-yl]phenyl}-1H-benzimidazole]
20 | ≥ 8.00 | c1ccc2c(c1)ncn2-c1ccc(-c2nc(CN3CCCCC3)co2)cc1 [Example 37]

Row | pKi | Structure (SMILES)
21 | 7.60 to 8.00 | CN(C)Cc1coc(-c2ccc(-n3cnc4ccccc43)cc2)n1 [Example 38]
22 | 7.60 to 8.00 | CCN(C)Cc1coc(-c2ccc(-n3cnc4ccccc43)cc2)n1 [Example 39]
23 | < 7.00 | c1ccc2c(c1)ncn2-c1ccc(-c2nc(CN3CCOCC3)co2)cc1 [Example 40]
24 | < 7.00 | CN1CCN(Cc2coc(-c3ccc(-n4cnc5ccccc54)cc3)n2)CC1 [Example 41, 1-(4-{4-[(4-methylpiperazin-1-yl)methyl]-1,3-oxazol-2-yl}phenyl)-1H-benzimidazole]
25 | 7.30 to 7.60 | CCN(CC)Cc1coc(-c2ccc(-n3cnc4ccccc43)cc2)n1 [Example 42, N-({2-[4-(1H-benzimidazol-1-yl)phenyl]-1,3-oxazol-4-yl}methyl)-N-ethylethanamine]
26 | 7.60 to 8.00 | CC1CCCN1Cc1coc(-c2ccc(-n3cnc4ccccc43)cc2)n1 (stereo not drawn) [Example 43, 1-(4-{4-[(2-methylpyrrolidin-1-yl)methyl]-1,3-oxazol-2-yl}phenyl)-1H-benzimidazole]
27 | 7.30 to 7.60 | c1ccc2c(c1)ncn2-c1ccc(-c2nc(CN3CCCCCC3)co2)cc1 [Example 44, 1-{4-[4-(azepan-1-ylmethyl)-1,3-oxazol-2-yl]phenyl}-1H-benzimidazole]
28 | ≥ 8.00 | CC1CCCCN1Cc1coc(-c2ccc(-n3cnc4ccccc43)cc2)n1 (stereo not drawn) [Example 45, 1-(4-{4-[(2-methylpiperidin-1-yl)methyl]-1,3-oxazol-2-yl}phenyl)-1H-benzimidazole]
29 | ≥ 8.00 | CC1CCCN(Cc2coc(-c3ccc(-n4cnc5ccccc54)cc3)n2)C1 (stereo not drawn) [Example 46, 1-(4-{4-[(3-methylpiperidin-1-yl)methyl]-1,3-oxazol-2-yl}phenyl)-1H-benzimidazole]
30 | ≥ 8.00 | CC1CCN(Cc2coc(-c3ccc(-n4cnc5ccccc54)cc3)n2)CC1 [Example 47, 1-(4-{4-[(4-methylpiperidin-1-yl)methyl]-1,3-oxazol-2-yl}phenyl)-1H-benzimidazole]
31 | ≥ 8.00 | OC[C@@H]1CCCN1Cc1coc(-c2ccc(-n3cnc4ccccc43)cc2)n1 [Example 48, [(2S)-1-({2-[4-(1H-benzimidazol-1-yl)phenyl]-1,3-oxazol-4-yl}methyl)pyrrolidin-2-yl]methanol]
32 | ≥ 8.00 | Cn1c(-c2ccc(-c3nc(CN4CCCC4)co3)cc2)nc2ccccc21 [Example 51, 1-methyl-2-{4-[4-(pyrrolidin-1-ylmethyl)-1,3-oxazol-2-yl]phenyl}-1H-benzimidazole]
33 | ≥ 8.00 | Cn1c(-c2ccc(-c3nc(CN4CCCCC4)co3)cc2)nc2ccccc21 [Example 52, 1-methyl-2-{4-[4-(piperidin-1-ylmethyl)-1,3-oxazol-2-yl]phenyl}-1H-benzimidazole]
34 | ≥ 8.00 | CCN(C)Cc1coc(-c2ccc(-c3nc4ccccc4n3C)cc2)n1 [Example 53, N-methyl-N-({2-[4-(1-methyl-1H-benzimidazol-2-yl)phenyl]-1,3-oxazol-4-yl}methyl)ethanamine]
35 | 7.60 to 8.00 | CN(C)Cc1coc(-c2ccc(-c3nc4ccccc4n3C)cc2)n1 [Example 54, N,N-dimethyl-1-{2-[4-(1-methyl-1H-benzimidazol-2-yl)phenyl]-1,3-oxazol-4-yl}methanamine]
36 | 7.60 to 8.00 | c1ccc2c(c1)nc(-c1ccc(-c3nc(CN4CCCC4)co3)cc1)n2CC1CCC1 [Example 58, 1-(cyclobutylmethyl)-2-{4-[4-(pyrrolidin-1-ylmethyl)-1,3-oxazol-2-yl]phenyl}-1H-benzimidazole]
37 | ≥ 8.00 | C[C@H]1CCCN1Cc1coc(-c2ccc(-c3nc4ccccc4n3CC3CCC3)cc2)n1 [Example 59, 1-(cyclobutylmethyl)-2-[4-(4-{[(2S)-2-methylpyrrolidin-1-yl]methyl}-1,3-oxazol-2-yl)phenyl]-1H-benzimidazole]
38 | 7.00 to 7.30 | c1ccc2c(c1)nc(-c1ccc(-c3nc(CN4CCCC4)co3)cc1)n2CCC1CCCCC1 [Example 60, 1-(2-cyclohexylethyl)-2-{4-[4-(pyrrolidin-1-ylmethyl)-1,3-oxazol-2-yl]phenyl}-1H-benzimidazole]
39 | 7.30 to 7.60 | C[C@H]1CCCN1Cc1coc(-c2ccc(-c3nc4ccccc4n3CCC3CCCCC3)cc2)n1 [Example 61]

— patent US7803825B2, “Aminoalkylazole derivatives as histamine-3 antagonists” (Wyeth LLC, priority 2007, dated 2010)
